# Results as given in patent US9765105B2, “Macrolide compound” (Pulike Biological Engineering, Inc., priority 2013, dated 2017).
# Experiments:
# Assay in all cases: in vitro susceptibility, MIC by mini broth dilution
# Type in all cases: cell-based
# [1] = system: Staphylococcus aureus CVCC26003; details: strain CVCC26003
# Procedure, shortened: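 S. aureus CVCC26003 was revived and subcultured twice, 20 h each at 35° C, on solid medium, then diluted 1:200 in CAMHB liquid medium. Compounds received an 11-step two-fold DMSO dilution in parallel duplicate rows. MIC was read by mini broth dilution per NCCLS guidance.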
# [2] = system: Actinobacillus pleuropneumoniae CVCC262; details: strain CVCC262
# Procedure, shortened: (§1)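 NCCLS-based mini broth dilution; inoculum from twice-streaked 35° C/20 h cultures, 1:200 in broth; compound two-fold series in DMSO, 11 steps, duplicates.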
# Haemophilus parasuis = system: Haemophilus parasuis
# Procedure, shortened: as §1
# [3] = system: Pasteurella multocida CVCC399; details: strain CVCC399
# Procedure, shortened: as §1
# [4] = system: Streptococcus equines CVCC556; details: strain CVCC556
# Procedure, shortened: as §1
SMILES,"MIC values, Staphylococcus aureus CVCC26003 [1] [ug/mi]","MIC values, Actinobacillus pleuropneumoniae CVCC262 [2] [ug/mi]","MIC values, Haemophilus parasuis (Haemophilus parasuis)","MIC values, Pasteurella multocida CVCC399 [3]","MIC values, Streptococcus equines CVCC556 [4]"
"CC[C@H]1OC(=O)[C@H](C)[C@@H](O[C@H]2C[C@@](C)(OC)[C@](O)(CNCc3ccccc3F)[C@H](C)O2)[C@H](C)[C@@H](O[C@@H]2O[C@H](C)C[C@H](N(C)C)[C@H]2O)[C@](C)(O)C[C@@H](C)NC[C@H](C)[C@@H](O)[C@]1(C)O [syzx-92, (2R,3S,4R,5S,8R,10R,11R,12S,13S,14R)-13-[(2,6-dideoxy-3-C-methyl-3-O-methyl-4-C-[(2-fluorobenzyl-amino)-methyl]-α-L-ribopyranosyl)oxy]-2-ethyl-3,4,10-trihydroxy-3,5,10,12,14-hexamethyl-11-[[3,4,6-trideoxy-3-(dimethylamino)-β-D-xylo-hexopyranosy]oxy]-1-oxa-7-azacyclopentadecan-15-one]",1,0.5,0.5 ug/mi,2 ug/mi,0.25 ug/mi
CCCC(C)NC[C@]1(O)[C@H](C)O[C@@H](O[C@H]2[C@H](C)[C@@H](O[C@@H]3O[C@H](C)C[C@H](N(C)C)[C@H]3O)[C@](C)(O)C[C@@H](C)NC[C@H](C)[C@@H](O)[C@](C)(O)[C@@H](CC)OC(=O)[C@@H]2C)C[C@@]1(C)OC (stereo partly shown) [syzx-63],0.5,0.5,≦0.25 ug/mi,≦0.25 ug/mi,≦0.25 ug/mi
"CC[C@H]1OC(=O)[C@H](C)[C@@H](O[C@H]2C[C@@](C)(OC)[C@](O)(CNc3ccccc3F)[C@H](C)O2)[C@H](C)[C@@H](O[C@@H]2O[C@H](C)C[C@H](N(C)C)[C@H]2O)[C@](C)(O)C[C@@H](C)NC[C@H](C)[C@@H](O)[C@]1(C)O [syzx-95, (2R,3S,4R,5S,8R,10R,11R,12S,13S,14R)-13-[(2,6-dideoxy-3-C-methyl-3-O-methyl-4-C-[(2-fluoro-phenyl-amino)-methyl]-α-L-ribopyranosyl)oxy]-2-ethyl-3,4,10-trihydroxy-3,5,8,10,12,14-hexamethyl-11-[[3,4,6-trideoxy-3-(dimethylamino)-β-D-xylo-hexopyranosy]oxy]-1-oxa-7-azacyclopentadecan-15-one]",2,2,2 ug/mi,2 ug/mi,0.5 ug/mi
"CC[C@H]1OC(=O)[C@H](C)[C@@H](O[C@H]2C[C@@](C)(OC)[C@](O)(CNCc3cccnc3)[C@H](C)O2)[C@H](C)[C@@H](O[C@@H]2O[C@H](C)C[C@H](N(C)C)[C@H]2O)[C@](C)(O)C[C@@H](C)NC[C@H](C)[C@@H](O)[C@]1(C)O [syzx-21, (2R,3S,4R,5S,8R,10R,11R,12S,13S,14R)-13-[(2,6-dideoxy-3-C-methyl-3-O-methyl-4-C-[(3-pyridinylmethylamino)methyl]-α-L-ribopyranosyl)oxy]-2-ethyl-3,4,10-trihydroxy-3,5,8,10,12,14-hexamethyl-11-[[3,4,6-trideoxy-3-(dimethylamino)-β-D-xylo-hexopyranosy]oxy]-1-oxa-7-azacyclopentadecan-15-one]",0.5,32,≦0.25 ug/mi,≦0.25 ug/mi,≦0.25 ug/mi
CCCN1C[C@H](C)[C@@H](O)[C@](C)(O)[C@@H](CC)OC(=O)[C@H](C)[C@@H](O[C@H]2C[C@@](C)(OC)[C@](O)(CNc3ccc(OC)cc3)[C@H](C)O2)[C@H](C)[C@@H](O[C@@H]2O[C@H](C)C[C@H](N(C)C)[C@H]2O)[C@](C)(O)C[C@H]1C [syzx-183],0.25,0.5,0.25 ug/mi,2 ug/mi,0.25 ug/mi
CCCN1C[C@H](C)[C@@H](O)[C@](C)(O)[C@@H](CC)OC(=O)[C@H](C)[C@@H](O[C@H]2C[C@@](C)(OC)[C@](O)(CNCc3ccc(F)c(F)c3)[C@H](C)O2)[C@H](C)[C@@H](O[C@@H]2O[C@H](C)C[C@H](N(C)C)[C@H]2O)[C@](C)(O)C[C@H]1C [syzx-154],0.25,0.25,0.25 ug/mi,0.5 ug/mi,0.5 ug/mi
CCCN1C[C@H](C)[C@@H](O)[C@](C)(O)[C@@H](CC)OC(=O)[C@H](C)[C@@H](O[C@H]2C[C@@](C)(OC)[C@](O)(CN3CCCC3)[C@H](C)O2)[C@H](C)[C@@H](O[C@@H]2O[C@H](C)C[C@H](N(C)C)[C@H]2O)[C@](C)(O)C[C@H]1C [syzx-209],0.25,0.25,0.25 ug/mi,0.25 ug/mi,0.25 ug/mi

# Second part, the compound after the results:
"MIC values, Staphylococcus aureus CVCC26003 [1] [ug/mi]","MIC values, Actinobacillus pleuropneumoniae CVCC262 [2] [ug/mi]","MIC values, Haemophilus parasuis (Haemophilus parasuis)","MIC values, Pasteurella multocida CVCC399 [3]","MIC values, Streptococcus equines CVCC556 [4]",SMILES
1,0.5,0.5 ug/mi,2 ug/mi,0.25 ug/mi,CCCN1C[C@H](C)[C@@H](O)[C@](C)(O)[C@@H](CC)OC(=O)[C@H](C)[C@@H](O[C@H]2C[C@@](C)(OC)[C@](O)(CNc3ccc(Cl)nn3)[C@H](C)O2)[C@H](C)[C@@H](O[C@@H]2O[C@H](C)C[C@H](N(C)C)[C@H]2O)[C@](C)(O)C[C@H]1C [syzx-132]
0.5,0.25,0.25 ug/mi,0.5 ug/mi,0.25 ug/mi,CCCN1C[C@H](C)[C@@H](O)[C@](C)(O)[C@@H](CC)OC(=O)[C@H](C)[C@@H](O[C@H]2C[C@@](C)(OC)[C@](O)(CNN3CCCCC3)[C@H](C)O2)[C@H](C)[C@@H](O[C@@H]2O[C@H](C)C[C@H](N(C)C)[C@H]2O)[C@](C)(O)C[C@H]1C [syzx-206]
0.25,0.5,0.5 ug/mi,1 ug/mi,0.25 ug/mi,CCCN1C[C@H](C)[C@@H](O)[C@](C)(O)[C@@H](CC)OC(=O)[C@H](C)[C@@H](O[C@H]2C[C@@](C)(OC)[C@](O)(CNN3CCOCC3)[C@H](C)O2)[C@H](C)[C@@H](O[C@@H]2O[C@H](C)C[C@H](N(C)C)[C@H]2O)[C@](C)(O)C[C@H]1C [syzx-148]
0.25,0.25,0.25 ug/mi,0.25 ug/mi,0.25 ug/mi,CCCN1C[C@H](C)[C@@H](O)[C@](C)(O)[C@@H](CC)OC(=O)[C@H](C)[C@@H](O[C@H]2C[C@@](C)(OC)[C@](O)(CNC(C)(C)C)[C@H](C)O2)[C@H](C)[C@@H](O[C@@H]2O[C@H](C)C[C@H](N(C)C)[C@H]2O)[C@](C)(O)C[C@H]1C [syzx-1 14]
0.5,0.25,0.25 ug/mi,0.5 ug/mi,0.5 ug/mi,CCCN1C[C@H](C)[C@@H](O)[C@](C)(O)[C@@H](CC)OC(=O)[C@H](C)[C@@H](O[C@H]2C[C@@](C)(OC)[C@](O)(CNCCCCl)[C@H](C)O2)[C@H](C)[C@@H](O[C@@H]2O[C@H](C)C[C@H](N(C)C)[C@H]2O)[C@](C)(O)C[C@H]1C [syzx-175]
0.25,0.25,0.25 ug/mi,0.5 ug/mi,0.5 ug/mi,CCCN1C[C@H](C)[C@@H](O)[C@](C)(O)[C@@H](CC)OC(=O)[C@H](C)[C@@H](O[C@H]2C[C@@](C)(OC)[C@](O)(CNCCCC(=O)O)[C@H](C)O2)[C@H](C)[C@@H](O[C@@H]2O[C@H](C)C[C@H](N(C)C)[C@H]2O)[C@](C)(O)C[C@H]1C [syzx-142]
0.5,0.5,0.5 ug/mi,2 ug/mi,1 ug/mi,CCCN1C[C@H](C)[C@@H](O)[C@](C)(O)[C@@H](CC)OC(=O)[C@H](C)[C@@H](O[C@H]2C[C@@](C)(OC)[C@](O)(CNC(=O)C(F)(F)F)[C@H](C)O2)[C@H](C)[C@@H](O[C@@H]2O[C@H](C)C[C@H](N(C)C)[C@H]2O)[C@](C)(O)C[C@H]1C [syzx-137]
